Results as given in patent US20140005163A1 (NOVARTIS AG, priority 2010, published 2014).

Experiments:
[1] = molecular target: T1, PI3K delta (Homo sapiens, UniProt O00329); assay: PI3K delta kinase assay (Kinase-Glo luminescence); assay type: biochemical
T1 construct: for the full-length p110-d subunit are generated and fused by overlapping PCR; p85(iSH2) fusion partner (see partner chain) (N); His tag (C); made in house; host or cells: baculovirus; Tn5 (Trichoplusia ni) or TiniPro insect cells
T1 sequence (O00329 with tags, fused parts or gaps limits assumed): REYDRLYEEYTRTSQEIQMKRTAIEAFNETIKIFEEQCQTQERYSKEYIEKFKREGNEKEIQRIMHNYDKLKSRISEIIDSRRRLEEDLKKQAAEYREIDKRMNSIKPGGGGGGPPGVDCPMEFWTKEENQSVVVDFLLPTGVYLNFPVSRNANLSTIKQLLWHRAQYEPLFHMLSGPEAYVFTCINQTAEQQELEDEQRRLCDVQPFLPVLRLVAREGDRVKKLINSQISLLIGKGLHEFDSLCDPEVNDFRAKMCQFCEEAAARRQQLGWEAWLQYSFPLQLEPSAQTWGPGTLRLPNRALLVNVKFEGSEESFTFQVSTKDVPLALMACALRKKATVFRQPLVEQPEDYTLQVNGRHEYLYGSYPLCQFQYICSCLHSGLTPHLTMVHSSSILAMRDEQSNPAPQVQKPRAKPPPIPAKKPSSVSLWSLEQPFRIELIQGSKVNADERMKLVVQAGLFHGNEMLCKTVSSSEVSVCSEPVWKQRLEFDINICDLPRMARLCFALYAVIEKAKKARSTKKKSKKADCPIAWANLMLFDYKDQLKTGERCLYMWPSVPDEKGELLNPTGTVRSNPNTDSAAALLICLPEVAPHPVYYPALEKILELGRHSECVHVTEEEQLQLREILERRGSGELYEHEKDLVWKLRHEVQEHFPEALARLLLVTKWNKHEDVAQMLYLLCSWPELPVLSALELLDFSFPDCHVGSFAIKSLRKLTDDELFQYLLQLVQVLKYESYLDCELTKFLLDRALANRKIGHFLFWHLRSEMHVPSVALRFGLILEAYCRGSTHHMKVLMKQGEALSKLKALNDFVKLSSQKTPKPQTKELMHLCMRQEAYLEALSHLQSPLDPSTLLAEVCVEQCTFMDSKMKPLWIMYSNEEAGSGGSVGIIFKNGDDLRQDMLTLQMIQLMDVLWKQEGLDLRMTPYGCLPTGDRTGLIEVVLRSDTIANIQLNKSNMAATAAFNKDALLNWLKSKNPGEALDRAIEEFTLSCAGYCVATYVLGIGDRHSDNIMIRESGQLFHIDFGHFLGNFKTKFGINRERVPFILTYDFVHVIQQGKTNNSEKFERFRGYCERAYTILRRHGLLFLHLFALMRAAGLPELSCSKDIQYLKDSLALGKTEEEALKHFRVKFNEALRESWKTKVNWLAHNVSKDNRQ
Summary of the method: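 Construct BV-1060, p85 iSH2–linker–full-length p110δ, His-tagged, at 10 nM, with 1 μM ATP and 10 μg/mL phosphatidylinositol in pH 7.5 Tris, 3 mM MgCl2, 50 mM NaCl, 0.05% CHAPS. Run 60 min at room temperature; remaining ATP read by Kinase-Glo luminescence; IC50 from 4-parameter logistic fit of 8 concentrations.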

[2] = molecular target: T2, mTOR (Homo sapiens, UniProt P42345); assay: Biochemical assay for m-TOR by TR-FRET; settings: 8 μM ATP, 400 nM GFP-4EBP1, 0.5 nM mTOR
T2 construct: purchased Invitrogen Corporation (Carlsbad/CA, USA) PV4753
T2 sequence (P42345 1360-2549 limits assumed): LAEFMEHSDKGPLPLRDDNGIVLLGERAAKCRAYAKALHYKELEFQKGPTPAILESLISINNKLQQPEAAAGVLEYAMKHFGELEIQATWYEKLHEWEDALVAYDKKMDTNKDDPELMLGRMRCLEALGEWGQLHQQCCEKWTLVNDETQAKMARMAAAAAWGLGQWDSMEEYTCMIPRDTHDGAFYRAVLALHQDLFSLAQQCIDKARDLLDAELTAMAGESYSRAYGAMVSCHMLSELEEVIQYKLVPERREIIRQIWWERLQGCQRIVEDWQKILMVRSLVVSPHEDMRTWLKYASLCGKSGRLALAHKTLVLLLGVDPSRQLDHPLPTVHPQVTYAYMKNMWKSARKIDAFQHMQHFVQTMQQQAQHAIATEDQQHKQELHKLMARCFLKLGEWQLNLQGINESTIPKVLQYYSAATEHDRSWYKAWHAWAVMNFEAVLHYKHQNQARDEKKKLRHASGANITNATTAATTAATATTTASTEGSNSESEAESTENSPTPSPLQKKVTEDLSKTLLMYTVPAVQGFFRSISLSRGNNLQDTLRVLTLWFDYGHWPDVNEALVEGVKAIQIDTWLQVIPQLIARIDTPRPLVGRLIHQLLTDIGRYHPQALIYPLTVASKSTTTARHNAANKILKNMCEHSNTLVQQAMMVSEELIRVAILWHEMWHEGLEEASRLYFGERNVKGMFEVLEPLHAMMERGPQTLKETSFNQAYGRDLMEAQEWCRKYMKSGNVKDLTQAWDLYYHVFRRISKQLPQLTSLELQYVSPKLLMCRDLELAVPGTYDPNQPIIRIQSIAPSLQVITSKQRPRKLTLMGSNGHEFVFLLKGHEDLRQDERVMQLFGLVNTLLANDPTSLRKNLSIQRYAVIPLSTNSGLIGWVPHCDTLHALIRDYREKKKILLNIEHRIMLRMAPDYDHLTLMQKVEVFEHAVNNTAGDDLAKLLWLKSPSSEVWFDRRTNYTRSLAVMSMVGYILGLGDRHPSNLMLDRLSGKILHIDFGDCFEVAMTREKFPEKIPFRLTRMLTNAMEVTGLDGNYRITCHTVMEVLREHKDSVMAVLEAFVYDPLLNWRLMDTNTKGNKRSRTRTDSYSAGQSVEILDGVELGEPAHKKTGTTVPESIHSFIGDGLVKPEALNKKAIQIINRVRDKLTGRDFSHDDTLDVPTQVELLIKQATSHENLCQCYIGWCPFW
Summary of the method: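 TR-FRET read-out: Tb-labelled anti-p4EBP1 pThr46 antibody (0.5 nM), added in EDTA to stop the reaction, detects phosphorylated GFP-4EBP1 after 15 min. Kinase step used 0.5 nM mTOR, 400 nM substrate, 8 μM ATP, MnCl2-containing HEPES buffer pH 7.5, room temperature.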

[3] = tested on: S6 Ribosomal Protein phosphorylation Ser235/236 in TSC1 null mouse embryo fibroblast (MEF) cells; assay: Reverse protein array assay, S6 Ribosomal Protein phosphorylation Ser235/236 in TSC1 null MEF cells; assay type: cell-based; settings: 1 h, pS6 ribosomal protein Ser235/236, 60 minutes incubation, read-out: p-S6 IC50
Summary of the method: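 TSC1−/− MEFs, seeded and held ≥20 h at 37 °C/5% CO2, were exposed to 8-step serial compound dilutions (0.02% DMSO final; DMSO vehicle control) for 60 min at 37 °C. Cells were then lysed on ice for 10 min and lysates spotted onto reverse protein array chips.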

Row | SMILES | IC50 [1] [nM] | IC50 [2] [nM] | IC50 [3] [nM]
1 | Cc1nn(C)cc1-n1c(=O)n(C)c2cnc3ccc(-c4cccc(C(N)=O)c4)cc3c21 [Example 46, 3-[1-(1,3-Dimethyl-1H-pyrazol-4-yl)-3-methyl-2-oxo-2,3-dihydro-1H-imidazo[4,5-c]quinolin-8-yl]-benzamide] | 292 | 231 | 98
2 | CCOc1ccc(-c2ccc3ncc4c(c3c2)n(-c2cnn(C)c2C)c(=O)n4C)cn1 [Example 3.6, 1-(1,5-Dimethyl-1H-pyrazol-4-yl)-8-(6-ethoxy-pyridin-3-yl)-3-methyl-1,3-dihydro-imidazo[4,5-c]quinolin-2-one] | 158 | 191 | 15
3 | CNc1ncc(-c2ccc3ncc4c(c3c2)n(-c2cc(C)nn2C)c(=O)n4C)cc1Cl [Example 146.5, 8-(5-Chloro-6-methylamino-pyridin-3-yl)-1-(2,5-dimethyl-2H-pyrazol-3-yl)-3-methyl-1,3-dihydro-imidazo[4,5-c]quinolin-2-one] | 3 | 48 | 2.66
4 | CNc1ncc(-c2ccc3ncc4c(c3c2)n(-c2c(C)nn(C)c2C)c(=O)n4C)cc1Cl [Example 146.4, 8-(5-Chloro-6-methylamino-pyridin-3-yl)-3-methyl-1-(1,3,5-trimethyl-1H-pyrazol-4-yl)-1,3-dihydro-imidazo[4,5-c]quinolin-2-one] | 19 | 309 | 12
5 | Cc1nn(C)cc1-n1c(=O)n(C)c2cnc3ccc(-c4ccccc4)cc3c21 [Example 37.1, 1-(1,3-Dimethyl-1H-pyrazol-4-yl)-3-methyl-8-phenyl-1,3-dihydro-imidazo[4,5-c]quinolin-2-one] | 449 | 213 | 30
6 | CCOc1ccc(-c2ccc3ncc4c(c3c2)n(-c2cn(CC)nc2C)c(=O)n4C)cc1OCC [Example 27.1, 8-(3,4-Diethoxy-phenyl)-1-(1-ethyl-3-methyl-1H-pyrazol-4-yl)-3-methyl-1,3-dihydro-imidazo[4,5-c]quinolin-2-one] | 17 | 49 | 13
7 | COCc1ncc(-c2ccc3ncc4c(c3c2)n(-c2cn(C(C)C)nc2C)c(=O)n4C)cc1OC [Example 195.2, 1-(1-Isopropyl-3-methyl-1H-pyrazol-4-yl)-8-(5-methoxy-6-methoxymethyl-pyridin-3-yl)-3-methyl-1,3-dihydro-imidazo[4,5-c]quinolin-2-one] | 35 | 87 | 31
8 | CCOc1ccc(-c2ccc3ncc4c(c3c2)n(-c2ccnn2CC)c(=O)n4C)cn1 [Example 3.4, 8-(6-Ethoxy-pyridin-3-yl)-1-(2-ethyl-2H-pyrazol-3-yl)-3-methyl-1,3-dihydro-imidazo[4,5-c]quinolin-2-one] | 283 | 161 | 199
9 | Cc1nn(C)c(C)c1-n1c(=O)n(C)c2cnc3ccc(-c4cnc(N)c(F)c4)cc3c21 [Example 142.1, 8-(6-Amino-5-fluoro-pyridin-3-yl)-3-methyl-1-(1,3,5-trimethyl-1H-pyrazol-4-yl)-1,3-dihydro-imidazo[4,5-c]quinolin-2-one] | 4 | 481 | 36
10 | Cc1nn(C)cc1-n1c(=O)n(C)c2cnc3ccc(-c4cncc(N(C)S(C)(=O)=O)c4)cc3c21 [Example 121, N-{5-[1-(1,3-Dimethyl-1H-pyrazol-4-yl)-3-methyl-2-oxo-2,3-dihydro-1H-imidazo[4,5-c]quinolin-8-yl]-pyridin-3-yl}-N-methyl-methanesulfonamide] | 18 | 91 | –
11 | COc1ccc(-c2ccc3ncc4c(c3c2)n(-c2cc(C)nn2C)c(=O)n4C)cn1 [Example 2.3, 1-(2,5-Dimethyl-2H-pyrazol-3-yl)-8-(6-methoxy-pyridin-3-yl)-3-methyl-1,3-dihydro-imidazo[4,5-c]quinolin-2-one] | 30 | 96 | –
12 | CCOc1cc(-c2ccc3ncc4c(c3c2)n(-c2c(C)nn(C)c2C)c(=O)n4C)ccc1OC [Example 28.2, 8-(3-Ethoxy-4-methoxy-phenyl)-3-methyl-1-(1,3,5-trimethyl-1H-pyrazol-4-yl)-1,3-dihydro-imidazo[4,5-c]quinolin-2-one] | 53 | 549 | –
13 | COc1ccc(-c2ccc3ncc4c(c3c2)n(-c2ccnn2C)c(=O)n4C)cc1OC [Example 1.3, 8-(3,4-Dimethoxy-phenyl)-3-methyl-1-(2-methyl-2H-pyrazol-3-yl)-1,3-dihydro-imidazo[4,5-c]quinolin-2-one] | 12 | 132 | –
14 | COc1ncc(-c2ccc3ncc4c(c3c2)n(-c2cn(C)nc2C)c(=O)n4C)cc1[N+](=O)[O-] [Example 66, 1-(1,3-dimethyl-1H-pyrazol-4-yl)-8-(6-methoxy-5-nitro-pyridin-3-yl)-3-methyl-1,3-dihydro-imidazo[4,5-c]quinolin-2-one] | 19 | 207 | –
15 | COCCOc1ccc(-c2ccc3ncc4c(c3c2)n(-c2cn(C)nc2C)c(=O)n4C)cn1 [Example 18, 1-(1,3-Dimethyl-1H-pyrazol-4-yl)-8-[6-(2-methoxy-ethoxy)-pyridin-3-yl]-3-methyl-1,3-dihydro-imidazo[4,5-c]quinolin-2-one] | 115 | 123 | –
16 | CCN(C)C(=O)Cn1cc(-n2c(=O)n(C)c3cnc4ccc(-c5ccccc5)cc4c32)c(C)n1 [Example 135, N-Ethyl-N-methyl-2-[3-methyl-4-(3-methyl-2-oxo-8-phenyl-2,3-dihydro-imidazo[4,5-c]quinolin-1-yl)-pyrazol-1-yl]-acetamide] | – | 140 | 6

Molecules with a lower IC50 [2], results first:

Row | IC50 [1] [nM] | IC50 [2] [nM] | SMILES | IC50 [3] [nM]
17 | 6 | 41 | Cc1nn(C)cc1-n1c(=O)n(C)c2cnc3ccc(-c4cncc(C5(O)CCCC5)c4)cc3c21 [Example 218, 1-(1,3-Dimethyl-1H-pyrazol-4-yl)-8-[5-(1-hydroxy-cyclopentyl)-pyridin-3-yl]-3-methyl-1,3-dihydro-imidazo[4,5-c]quinolin-2-one] | < 0.5
18 | 18 | 23 | Cc1nn(C)cc1-n1c(=O)n(C)c2cnc3ccc(-c4ccc(CO)nc4)cc3c21 [Example 16.2, 1-(1,3-Dimethyl-1H-pyrazol-4-yl)-8-(6-hydroxymethyl-pyridin-3-yl)-3-methyl-1,3-dihydro-imidazo[4,5-c]quinolin-2-one] | 181
19 | 6 | 29 | COCc1cc(-c2ccc3ncc4c(c3c2)n(-c2cn(C)nc2C)c(=O)n4C)cnc1OC [Example 202, 1-(1,3-Dimethyl-1H-pyrazol-4-yl)-8-(6-methoxy-5-methoxymethyl-pyridin-3-yl)-3-methyl-1,3-dihydro-imidazo[4,5-c]quinolin-2-one] | 1
20 | 39 | 23 | CCN(C)C(=O)Cn1cc(-n2c(=O)n(C)c3cnc4ccc(-c5cncc(OC(C)C)c5)cc4c32)c(C)n1 [Example 58.5, N-Ethyl-2-{4-[8-(5-isopropoxy-pyridin-3-yl)-3-methyl-2-oxo-2,3-dihydro-imidazo[4,5-c]quinolin-1-yl]-3-methyl-pyrazol-1-yl}-N-methyl-acetamide] | 3
21 | 82 | 5 | Cc1nn(C)cc1-n1c(=O)n(C)c2cnc3ccc(-c4ccc(C(N)=O)cc4)cc3c21 [Example 41, 4-[1-(1,3-Dimethyl-1H-pyrazol-4-yl)-3-methyl-2-oxo-2,3-dihydro-1H-imidazo[4,5-c]quinolin-8-yl]-benzamide] | 23
22 | 6 | 25 | COCc1ncc(-c2ccc3ncc4c(c3c2)n(-c2cn(C)nc2C)c(=O)n4C)cc1OC(C)C [Example 191.1, 1-(1,3-Dimethyl-1H-pyrazol-4-yl)-8-(5-isopropoxy-6-methoxymethyl-pyridin-3-yl)-3-methyl-1,3-dihydro-imidazo[4,5-c]quinolin-2-one] | 4
23 | – | 36 | CCN(C)C(=O)Cn1cc(-n2c(=O)n(C)c3cnc4ccc(-c5cnc(N6CCCC6)nc5)cc4c32)c(C)n1 [Example 140.1, N-Ethyl-N-methyl-2-{3-methyl-4-[3-methyl-2-oxo-8-(2-pyrrolidin-1-yl-pyrimidin-5-yl)-2,3-dihydro-imidazo[4,5-c]quinolin-1-yl]-pyrazol-1-yl}-acetamide] | 5
24 | – | 19 | Cc1nn(CC(=O)N(C)C)cc1-n1c(=O)n(C)c2cnc3ccc(-c4ccccc4)cc3c21 [Example 37.3, N,N-Dimethyl-2-[3-methyl-4-(3-methyl-2-oxo-8-phenyl-2,3-dihydro-imidazo[4,5-c]quinolin-1-yl)-pyrazol-1-yl]-acetamide] | 15
25 | 7 | < 3 | CCn1cc(-n2c(=O)n(C)c3cnc4ccc(-c5cnc(NC)nc5OC)cc4c32)c(C)n1 [Example 236, 1-(1-Ethyl-3-methyl-1H-pyrazol-4-yl)-8-(4-methoxy-2-methylamino-pyrimidin-5-yl)-3-methyl-1,3-dihydro-imidazo[4,5-c]quinolin-2-one] | –
